Data published in the CheMixHub viscosity set.

Assay: xn = mol fraction of the nth substance listed

CCCCCCO + COC(=O)OC
Details | viscosity [mPa·s]
293.15 K, 100 kPa, x2 = 0.1003 | 3.53
293.15 K, 100 kPa, x2 = 0.1998 | 2.47
293.15 K, 100 kPa, x2 = 0.3011 | 1.87
293.15 K, 100 kPa, x2 = 0.4001 | 1.51
293.15 K, 100 kPa, x2 = 0.5007 | 1.24
293.15 K, 100 kPa, x2 = 0.5987 | 0.95
293.15 K, 100 kPa, x2 = 0.7003 | 0.77
293.15 K, 100 kPa, x2 = 0.8013 | 0.71
293.15 K, 100 kPa, x2 = 0.9002 | 0.61
293.15 K, 101 kPa, x2 = 0.04349 | 4.578
293.15 K, 101 kPa, x2 = 0.1014 | 3.717
293.15 K, 101 kPa, x2 = 0.1936 | 2.761
293.15 K, 101 kPa, x2 = 0.3033 | 2.046
293.15 K, 101 kPa, x2 = 0.4078 | 1.6
293.15 K, 101 kPa, x2 = 0.5026 | 1.302
293.15 K, 101 kPa, x2 = 0.602 | 1.06
293.15 K, 101 kPa, x2 = 0.699 | 0.883
293.15 K, 101 kPa, x2 = 0.8055 | 0.756
293.15 K, 101 kPa, x2 = 0.9079 | 0.685
293.15 K, 101 kPa, x2 = 0.9562 | 0.648
298.15 K, 100 kPa, x2 = 0.1003 | 3.06
298.15 K, 100 kPa, x2 = 0.1998 | 2.17
298.15 K, 100 kPa, x2 = 0.3011 | 1.66
298.15 K, 100 kPa, x2 = 0.4001 | 1.34
298.15 K, 100 kPa, x2 = 0.5007 | 1.12
298.15 K, 100 kPa, x2 = 0.5987 | 0.92
298.15 K, 100 kPa, x2 = 0.7003 | 0.77
298.15 K, 100 kPa, x2 = 0.8013 | 0.66
298.15 K, 100 kPa, x2 = 0.9002 | 0.57
303.15 K, 100 kPa, x2 = 0.1003 | 2.67
303.15 K, 100 kPa, x2 = 0.1998 | 1.93
303.15 K, 100 kPa, x2 = 0.3011 | 1.48
303.15 K, 100 kPa, x2 = 0.4001 | 1.23
303.15 K, 100 kPa, x2 = 0.5007 | 1.02
303.15 K, 100 kPa, x2 = 0.5987 | 0.84
303.15 K, 100 kPa, x2 = 0.7003 | 0.72
303.15 K, 100 kPa, x2 = 0.8013 | 0.61
303.15 K, 100 kPa, x2 = 0.9002 | 0.54
303.15 K, 101 kPa, x2 = 0.04993 | 3.355
303.15 K, 101 kPa, x2 = 0.1121 | 2.759
303.15 K, 101 kPa, x2 = 0.1985 | 2.135
303.15 K, 101 kPa, x2 = 0.3013 | 1.623
303.15 K, 101 kPa, x2 = 0.4548 | 1.153
303.15 K, 101 kPa, x2 = 0.4939 | 1.069
303.15 K, 101 kPa, x2 = 0.5585 | 0.951
303.15 K, 101 kPa, x2 = 0.7038 | 0.747
303.15 K, 101 kPa, x2 = 0.7977 | 0.649
303.15 K, 101 kPa, x2 = 0.9079 | 0.571
303.15 K, 101 kPa, x2 = 0.9534 | 0.548
308.15 K, 100 kPa, x2 = 0.1003 | 2.35
308.15 K, 100 kPa, x2 = 0.1998 | 1.71
308.15 K, 100 kPa, x2 = 0.3011 | 1.33
308.15 K, 100 kPa, x2 = 0.4001 | 1.07
308.15 K, 100 kPa, x2 = 0.5007 | 0.93
308.15 K, 100 kPa, x2 = 0.5987 | 0.78
308.15 K, 100 kPa, x2 = 0.7003 | 0.67
308.15 K, 100 kPa, x2 = 0.8013 | 0.57
308.15 K, 100 kPa, x2 = 0.9002 | 0.53
313.15 K, 100 kPa, x2 = 0.1003 | 2.07
313.15 K, 100 kPa, x2 = 0.1998 | 1.53
313.15 K, 100 kPa, x2 = 0.3011 | 1.21
313.15 K, 100 kPa, x2 = 0.4001 | 0.99
313.15 K, 100 kPa, x2 = 0.5007 | 0.86
313.15 K, 100 kPa, x2 = 0.5987 | 0.72
313.15 K, 100 kPa, x2 = 0.7003 | 0.62
313.15 K, 100 kPa, x2 = 0.8013 | 0.53
313.15 K, 100 kPa, x2 = 0.9002 | 0.48
313.15 K, 101 kPa, x2 = 0.05023 | 2.521
313.15 K, 101 kPa, x2 = 0.1223 | 2.039
313.15 K, 101 kPa, x2 = 0.2131 | 1.599
313.15 K, 101 kPa, x2 = 0.3291 | 1.223
313.15 K, 101 kPa, x2 = 0.4005 | 1.061
313.15 K, 101 kPa, x2 = 0.4874 | 0.911
313.15 K, 101 kPa, x2 = 0.5997 | 0.76
313.15 K, 101 kPa, x2 = 0.6524 | 0.713
313.15 K, 101 kPa, x2 = 0.7994 | 0.572
313.15 K, 101 kPa, x2 = 0.9089 | 0.514
313.15 K, 101 kPa, x2 = 0.9495 | 0.501
318.15 K, 100 kPa, x2 = 0.1003 | 1.83
318.15 K, 100 kPa, x2 = 0.1998 | 1.37
318.15 K, 100 kPa, x2 = 0.3011 | 1.09
318.15 K, 100 kPa, x2 = 0.4001 | 0.91
318.15 K, 100 kPa, x2 = 0.5007 | 0.79
318.15 K, 100 kPa, x2 = 0.5987 | 0.67
318.15 K, 100 kPa, x2 = 0.7003 | 0.58
318.15 K, 100 kPa, x2 = 0.8013 | 0.51
318.15 K, 100 kPa, x2 = 0.9002 | 0.46
323.15 K, 100 kPa, x2 = 0.1003 | 1.63
323.15 K, 100 kPa, x2 = 0.1998 | 1.24
323.15 K, 100 kPa, x2 = 0.3011 | 0.99
323.15 K, 100 kPa, x2 = 0.4001 | 0.84
323.15 K, 100 kPa, x2 = 0.5007 | 0.73
323.15 K, 100 kPa, x2 = 0.5987 | 0.63
323.15 K, 100 kPa, x2 = 0.7003 | 0.55
323.15 K, 100 kPa, x2 = 0.8013 | 0.48
323.15 K, 100 kPa, x2 = 0.9002 | 0.43

CC(C)CC(C)(C)C + C1CCCCC1
viscosity [mPa·s]
Details | 298.15 K | 303.15 K | 308.15 K | 313.15 K | 318.15 K | 323.15 K
101 kPa, x2 = 0.1052 | – | 0.4666 | – | – | – | –
101 kPa, x2 = 0.1988 | – | 0.4842 | – | – | – | –
101 kPa, x2 = 0.3026 | – | 0.505 | – | – | – | –
101 kPa, x2 = 0.4095 | – | 0.5328 | – | – | – | –
101 kPa, x2 = 0.5008 | – | 0.5579 | – | – | – | –
101 kPa, x2 = 0.6005 | – | 0.5947 | – | – | – | –
101 kPa, x2 = 0.7002 | – | 0.6379 | – | – | – | –
101 kPa, x2 = 0.8014 | – | 0.6902 | – | – | – | –
101.33 kPa, x1 = 0.035 | 0.8617 | 0.7932 | 0.7312 | 0.6779 | 0.6323 | 0.5887
101.33 kPa, x1 = 0.0662 | 0.8283 | 0.7645 | 0.7054 | 0.6567 | 0.6115 | 0.5733
101.33 kPa, x1 = 0.1012 | 0.8041 | 0.741 | 0.6844 | 0.6377 | 0.5952 | 0.5565
101.33 kPa, x1 = 0.1376 | 0.7806 | 0.718 | 0.6639 | 0.6192 | 0.5793 | 0.5402
101.33 kPa, x1 = 0.1754 | 0.7572 | 0.6953 | 0.6438 | 0.6 | 0.5628 | 0.5235
101.33 kPa, x1 = 0.2147 | 0.7344 | 0.6732 | 0.6242 | 0.5813 | 0.5467 | –
101.33 kPa, x1 = 0.2557 | 0.7147 | 0.6528 | 0.6066 | 0.5646 | 0.5318 | –
101.33 kPa, x1 = 0.2984 | 0.6954 | 0.633 | 0.5895 | 0.5483 | 0.5172 | –
101.33 kPa, x1 = 0.343 | 0.6717 | 0.6129 | 0.5717 | 0.5322 | 0.5024 | –
101.33 kPa, x1 = 0.3895 | 0.6484 | 0.5933 | 0.5545 | 0.5166 | 0.488 | –
101.33 kPa, x1 = 0.4382 | 0.6219 | 0.5768 | 0.539 | 0.5029 | 0.4762 | –
101.33 kPa, x1 = 0.4891 | 0.5959 | 0.5607 | 0.524 | 0.4895 | 0.4647 | –
101.33 kPa, x1 = 0.5423 | 0.5752 | 0.5454 | 0.5098 | 0.4781 | 0.4527 | –
101.33 kPa, x1 = 0.5982 | 0.5549 | 0.5306 | 0.496 | 0.4671 | 0.4411 | –
101.33 kPa, x1 = 0.6569 | 0.5406 | 0.5132 | 0.4812 | 0.4546 | 0.4305 | –
101.33 kPa, x1 = 0.7185 | 0.5267 | 0.4963 | 0.4668 | 0.4424 | 0.4203 | –
101.33 kPa, x1 = 0.7834 | 0.5135 | 0.4848 | 0.457 | 0.4315 | 0.4106 | –
101.33 kPa, x1 = 0.8517 | 0.5006 | 0.4737 | 0.4475 | 0.421 | 0.4013 | –
101.33 kPa, x1 = 0.9238 | 0.4888 | 0.4625 | 0.4368 | 0.4131 | 0.3929 | –
